Laboratory results: patent publication US20030144234A1, “Methods for the treatment of chronic pain and compositions therefor” (priority 2001, published 2003)
Starred links: 1 amine or outer side, 2 acyl side, 3 side chain; linkers in the order of their positions; H or OH if unused. Non-standard residues stand in square brackets, D forms with d. Residues, ends and D or L forms follow the SMILES beside them. *: point of attachment. hPhe = N[C@@H](CCc1ccccc1)C(=O)O; Morpholide = C1CN(*)CCO1; CO = O=C([*:1])[*:2]; CH2F = FC*

Key:
[1] = system: Seltzer model of chronic neuropathic pain; assay: Established mechanical hyperalgesia in the Seltzer model of chronic neuropathic pain, single oral dose; type: in vivo, Wistar rats; set-up: effect on established mechanical hyperalgesia: unit not given here
cathepsin K = biological target: T1, cathepsin K (Homo sapiens, UniProt P43235); assay: Cathepsin K inhibitory activity (stated in words); type: biochemical
T1 sequence (P43235 115-329): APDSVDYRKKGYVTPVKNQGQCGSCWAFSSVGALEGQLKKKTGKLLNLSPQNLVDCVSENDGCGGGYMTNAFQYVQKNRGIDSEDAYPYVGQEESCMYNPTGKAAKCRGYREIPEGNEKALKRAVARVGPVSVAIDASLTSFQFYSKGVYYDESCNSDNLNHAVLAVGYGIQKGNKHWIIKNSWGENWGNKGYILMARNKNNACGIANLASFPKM

cathepsin S [2] = biological target: T2, cathepsin S (Homo sapiens, UniProt P25774); assay: Cathepsin S inhibitory activity (stated in words); type: biochemical
[3] = system: FCA-induced model of chronic inflammatory pain; assay: Mechanical hyperalgesia in the FCA-induced model of chronic inflammatory pain; type: in vivo, rats; details: 100 mg/kg p.o., 24 hours after FCA induction, data not shown
Experimental: The Complete Freund's Adjuvant-induced mechanical hyperalgesia may be used as a model of chronic inflammatory pain (Stein, C. et al. Pharmacol. Biochem. Behav. (1988) 31:445-451). In this model, typically a male Sprague-Dawley orWistar rat (200-250 g) receives an intraplantar injection of 25 μl complete Freund's adjuvant into one hind paw. A marked inflammation occurs in this hind paw. Drugs are generally administered for evaluation of efficacy, 24 hours after the inflammatory insult, when mechanical hyperalgesia is considered fully established. In all chronic pain models (inflammatory and neuropathic) mechanical hyperalgesia is assessed by measuring paw withdrawal thresholds of both hindpaws to an increasing pressure stimulus using an Analgesymeter (Ugo-Basile, Milan). Mechanical allodynia is assessed by measuring withdrawal thresholds to non-noxious mechanical stimuli applied with von Frey hairs to the plantar surface of both hindpaws. Thermal hyperalgesia is assessed by measuring withdrawal latencies to a noxious thermal stimulus applied to the underside of each hindpaw. With all models, mechanical hyperalgesia and allodynia and thermal hyperalgesia develop within 1-3 days following surgery and persist for at least 50 days. […] The percentage reversal of hyperalgesia is calculated as follows: [formula] […]

[4] = system: CCI model of chronic neuropathic pain; assay: Established mechanical hyperalgesia in the CCI model of chronic neuropathic pain, single oral dose (paw withdrawal threshold); type: in vivo, Wistar rats; details: for % Reversal of Predose Hyperalgesia: CCI model day 14
From the text: In the Chronic Constriction Injury (CCl) model (Bennett, G. J. and Xie, Y. K. Pain (1988) 33: 87-107) rats are anaesthetised and a small incision is made mid-way up one thigh (usually the left) to expose the sciatic nerve. The nerve is cleared of surrounding connective tissue and four ligatures of 4/0 chromic gut are tied loosely around the nerve with approximately 1 mm between each, so that the ligatures just barely constrict the surface of the nerve. The wound is closed with sutures and clips as described above. In sham animals the sciatic nerve is exposed but not ligated and the wound closed as in nonsham animals. In all chronic pain models (inflammatory and neuropathic) mechanical hyperalgesia is assessed by measuring paw withdrawal thresholds of both hindpaws to an increasing pressure stimulus using an Analgesymeter (Ugo-Basile, Milan). Mechanical allodynia is assessed by measuring withdrawal thresholds to non-noxious mechanical stimuli applied with von Frey hairs to the plantar surface of both hindpaws. Thermal hyperalgesia is assessed by measuring withdrawal latencies to a noxious thermal stimulus applied to the underside of each hindpaw. With all models, mechanical hyperalgesia and allodynia and thermal hyperalgesia develop within 1-3 days following surgery and persist for at least 50 days. For the assays described herein, drugs may be applied before and after surgery to assess their effect on the development of hyperalgesia, particularly approximately 14 days following surgery, to determine their ability to reverse established hyperalgesia. The percentage reversal of hyperalgesia is calculated as follows: [formula] In the experiments disclosed herein, Wistar rats (male) are employed in the pain models described above. Rats weigh approximately 120-140 grams at the time of surgery. All surgery is performed under enflurane/O2 inhalation anaesthesia. In all cases the wound is closed after the procedure and the animal allowed to recover. In all pain models employed, after a few days in all but the sham operated animals, a marked mechanical and thermal hyperalgesia and allodynia develops in which there is a lowering of pain threshold and an enhanced reflex withdrawal response of the hind-paw to touch, pressure or thermal stimuli. […] In the majority of animals the toes of the affected hind paw are held together and the foot turned slightly to one side; in some rats the toes are also curled under. The gait of the ligated rats varies, but limping is uncommon. […] The rats tend to be very sensitive to touch and may vocalise. Otherwise the general health an condition of the rats is good. Rats are subjected to the surgical procedures according to the CCl chronic pain model described above. Paw withdrawal thresholds are measured prior to surgery, 14 days later when hyperalgesia is established and then at 1, 3 and 6 hours following a single oral gavage dose of compound B. Results are provided in Table 2, below. Each time point represents data from 6 animals per group. Vehicle control: PEG/methyl cellulose (0.5%)+Tween 80 (0.25%)(20:80), 1 ml p.o.

cathepsin S [5] = biological target: T2, cathepsin S; details: per U.S. Pat. No. 4,518,528; cited from earlier work
[6] = system: CCI model of chronic neuropathic pain; assay: Mechanical hyperalgesia in the CCI model, twice daily oral dosing throughout development of hyperalgesia; type: in vivo, Wistar rats
From the text: In the Chronic Constriction Injury (CCl) model (Bennett, G. J. and Xie, Y. K. Pain (1988) 33: 87-107) rats are anaesthetised and a small incision is made mid-way up one thigh (usually the left) to expose the sciatic nerve. The nerve is cleared of surrounding connective tissue and four ligatures of 4/0 chromic gut are tied loosely around the nerve with approximately 1 mm between each, so that the ligatures just barely constrict the surface of the nerve. The wound is closed with sutures and clips as described above. In sham animals the sciatic nerve is exposed but not ligated and the wound closed as in nonsham animals. In all chronic pain models (inflammatory and neuropathic) mechanical hyperalgesia is assessed by measuring paw withdrawal thresholds of both hindpaws to an increasing pressure stimulus using an Analgesymeter (Ugo-Basile, Milan). Mechanical allodynia is assessed by measuring withdrawal thresholds to non-noxious mechanical stimuli applied with von Frey hairs to the plantar surface of both hindpaws. Thermal hyperalgesia is assessed by measuring withdrawal latencies to a noxious thermal stimulus applied to the underside of each hindpaw. With all models, mechanical hyperalgesia and allodynia and thermal hyperalgesia develop within 1-3 days following surgery and persist for at least 50 days. For the assays described herein, drugs may be applied before and after surgery to assess their effect on the development of hyperalgesia, particularly approximately 14 days following surgery, to determine their ability to reverse established hyperalgesia. In the experiments disclosed herein, Wistar rats (male) are employed in the pain models described above. Rats weigh approximately 120-140 grams at the time of surgery. All surgery is performed under enflurane/O2 inhalation anaesthesia. In all cases the wound is closed after the procedure and the animal allowed to recover. In all pain models employed, after a few days in all but the sham operated animals, a marked mechanical and thermal hyperalgesia and allodynia develops in which there is a lowering of pain threshold and an enhanced reflex withdrawal response of the hind-paw to touch, pressure or thermal stimuli. […] In the majority of animals the toes of the affected hind paw are held together and the foot turned slightly to one side; in some rats the toes are also curled under. The gait of the ligated rats varies, but limping is uncommon. […] The rats tend to be very sensitive to touch and may vocalise. Otherwise the general health an condition of the rats is good. Data disclosed herein indicate that compound B can reverse the mechanical hyperalgesia induced in the CCl model of neuropathic pain in a dose dependent manner with a D50 in the range 30-100 mg/kg, with up to 70% reversal at 100 mg/kg at 1 hour post dosing. […] In the twice daily study, paw withdrawal thresholds were measured prior to surgery and then daily 3 hours following the second oral dosing with compound B. The last dose was given on day 13. Each time point in Table 3 represents data from 6 animals per group. Vehicle control: PEG/methyl cellulose (0.5%)+Tween 80 (0.25%)(20:80), 1 ml p.o.

T2 sequence (P25774 115-331): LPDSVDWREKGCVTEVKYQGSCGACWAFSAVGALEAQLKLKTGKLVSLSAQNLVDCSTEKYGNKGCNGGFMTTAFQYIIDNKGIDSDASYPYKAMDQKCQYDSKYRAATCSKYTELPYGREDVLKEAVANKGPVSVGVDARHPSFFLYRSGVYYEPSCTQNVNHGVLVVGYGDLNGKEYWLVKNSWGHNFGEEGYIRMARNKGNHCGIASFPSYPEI

## CC(C)(C)Cn1c(Cc2cccs2)cc2cnc(C#N)nc21 [Compound A, 7-(2,2-Dimethyl-propyl)-6-thiophen-2-ylmethyl-7.H.-pyrrolo[2,3-.d.]pyrimidine-2-carbonitrile]
[1]; Cmpd A 3 mg/kg single oral dose, 1 hr
  effect on established mechanical hyperalgesia: 1.32
[1]; Cmpd A 3 mg/kg single oral dose, 3 hrs
  effect on established mechanical hyperalgesia: 3.64
[1]; Cmpd A 3 mg/kg single oral dose, 6 hrs
  effect on established mechanical hyperalgesia: −1.06
[1]; Cmpd A 10 mg/kg single oral dose, 1 hr
  effect on established mechanical hyperalgesia: 8.63
[1]; Cmpd A 10 mg/kg single oral dose, 3 hrs
  effect on established mechanical hyperalgesia: 52.94
[1]; Cmpd A 10 mg/kg single oral dose, 6 hrs
  effect on established mechanical hyperalgesia: 17.63
[1]; Cmpd A 30 mg/kg single oral dose, 1 hr
  effect on established mechanical hyperalgesia: 31.15
[1]; Cmpd A 30 mg/kg single oral dose, 3 hrs
  effect on established mechanical hyperalgesia: 68.32
[1]; Cmpd A 30 mg/kg single oral dose, 6 hrs
  effect on established mechanical hyperalgesia: 23.05
[1]; Seltzer model, single oral dose
  D50 for reversal of hyperalgesia: 3 to 10 mg/kg
Cathepsin K
  cathepsin K inhibitory activity (in words): mixed cathepsin S/K inhibitory activity
Cathepsin S [2]
  cathepsin S inhibitory activity (in words): mixed cathepsin S/K inhibitory activity

## O=C(CF)[C@H](CCc1ccccc1)NC(=O)[C@H](Cc1ccccc1)NC(=O)N1CCOCC1 [Compound B, 3-[(4-morpholinylcarbonyl)-phenylalanylamido]-1-fluoro-5-phenyl-2-pentanone] ({Morpholide-CO}-Phe-[hPhe]-CH2F)
[3]
  maximal reversal of mechanical hyperalgesia: 46%
[1]; Cmpd B 30 mg/kg single oral dose, 1 hr
  effect on established mechanical hyperalgesia: 33.47
[1]; Cmpd B 30 mg/kg single oral dose, 3 hrs
  effect on established mechanical hyperalgesia: 41.57
[1]; Cmpd B 30 mg/kg single oral dose, 6 hrs
  effect on established mechanical hyperalgesia: 11.97
[4]; 10 mg/kg single oral dose, 1 hr post dose
  % Reversal of Predose Hyperalgesia: 26.16%
[4]; 10 mg/kg single oral dose, 3 hrs post dose
  % Reversal of Predose Hyperalgesia: 38.19%
[4]; 10 mg/kg single oral dose, 6 hrs post dose
  % Reversal of Predose Hyperalgesia: 18.29%
[4]; 30 mg/kg single oral dose, 1 hr post dose
  % Reversal of Predose Hyperalgesia: 40.97%
[4]; 30 mg/kg single oral dose, 3 hrs post dose
  % Reversal of Predose Hyperalgesia: 38.89%
[4]; 30 mg/kg single oral dose, 6 hrs post dose
  % Reversal of Predose Hyperalgesia: 13.89%
[4]; 100 mg/kg single oral dose, 1 hr post dose
  % Reversal of Predose Hyperalgesia: 76.49%
[4]; 100 mg/kg single oral dose, 3 hrs post dose
  % Reversal of Predose Hyperalgesia: 55.06%
[4]; 100 mg/kg single oral dose, 6 hrs post dose
  % Reversal of Predose Hyperalgesia: 29.76%
[4]; CCI model, 100 mg/kg, 1 hour post dosing
  reversal of mechanical hyperalgesia: up to 70%
[4]; CCI model, single oral dose
  D50 for reversal of mechanical hyperalgesia: 30 to 100 mg/kg
Cathepsin S [5]
  inhibition of cathepsin S in vitro (in words): known to inhibit
[6]; 30 mg/kg orally twice daily, day 1 post surgery, 3 hours after second dose
  Mean Paw pressure withdrawal threshold: 100.00 g
[6]; 30 mg/kg orally twice daily, day 2 post surgery, 3 hours after second dose
  Mean Paw pressure withdrawal threshold: 70.83 g
[6]; 30 mg/kg orally twice daily, day 3 post surgery, 3 hours after second dose
  Mean Paw pressure withdrawal threshold: 79.17 g
[6]; 30 mg/kg orally twice daily, day 4 post surgery, 3 hours after second dose
  Mean Paw pressure withdrawal threshold: 80.00 g
[6]; 30 mg/kg orally twice daily, day 6 post surgery, 3 hours after second dose
  Mean Paw pressure withdrawal threshold: 80.80 g
[6]; 30 mg/kg orally twice daily, day 8 post surgery, 3 hours after second dose
  Mean Paw pressure withdrawal threshold: 80.00 g
[6]; 30 mg/kg orally twice daily, day 10 post surgery, 3 hours after second dose
  Mean Paw pressure withdrawal threshold: 77.50 g
[6]; 30 mg/kg orally twice daily, day 13 post surgery (last dose), 3 hours after second dose
  Mean Paw pressure withdrawal threshold: 79.17 g
[6]; CCI model, 30 mg/kg orally, twice daily throughout development of hyperalgesia
  reversing mechanical hyperalgesia (in words): acutely effective
[6]; day 15 post surgery, after end of 30 mg/kg twice daily treatment (last dose day 13)
  Mean Paw pressure withdrawal threshold: 60.83 g
